Blank lines part the entries; values can stand above or below the molecule they belong to. *1 amine or outer side, *2 acyl side, *3 side chain or, on linkers, in order; H or OH if unused. Where a SMILES comes first, the peptide text is derived from it. [ ]: non-standard residue; d: D form. The star is where a group is joined. AMC = Cc1cc(=O)oc2cc(N*)ccc12; pGlu = O=C1CC[C@@H](C(=O)O)N1; Suc = O=C(CCC(=O)[*:2])[*:1]
How the values were obtained:
Format in all cases: biochemical, cat
[1] = test system: Cat1 S3 fur extract proteolytic activity; test: Inhibition of the proteolytic activity in animal fur by proteinase inhibitors; conditions: Cat1 S3, 10 μM inhibitor
Procedure: […] The assay was begun with substrate and sample and a continuous rate of product formation (nM/min) was measured (v0) for 15 min. The inhibitor was added to a final concentration of 10 μM in negligible volume from stock solution in dimethyl sulfoxide. The assay was continued for a further 15 min.
(§1) Under these conditions reversible inhibition can be measured as the new steady state (v1) with percentage inhibition being 1−(v1/v0)×100. Irreversible inhibition is measured as a second order rate constant and is time dependent but as long as the inhibitor is present in molar excess should always lead eventually to total inhibition. No distinction was made and inhibition is presented as a percentage of full activity. See results table 4.

[2] = test system: Cat1 S3 fur extract proteolytic activity; test: Determination of Ki for the inhibition of Cat1 S3 by leupeptin; design: V1: unit not given beside the values
Procedure: The assays were carried out as described above, using 5 μM Z-Gly-Gly-Arg-NHMec as substrate in assay buffer. The assay was begun with substrate and sample and a continuous rate of product formation (nM/min) was measured (v0) for 15 min. […] The assay was continued for a further 15 min.
as §1

[3] = test system: Cat1 S1 fur extract proteolytic activity; test: Proteolytic activity of fur extract against NHMec substrates; conditions: sample Cat1 S1, 5 μM substrate, 37° C., pH 7.5
Procedure: (§2) A clean pet brush was used to brush three common English domestic cats. Fur from guinea pigs, rabbit, dogs and horse was collected in the same way. A different brush was used for each species and between brushings these were cleaned thoroughly in a denaturing detergent solution (Fairy® detergent) and then ethanol. The brushings were transferred to a sterile universal container and extracted by shaking in an extraction buffer, 50 mM Tris.HCl, 5 mM CaCl2, pH 7.5 (0.1 g/ml). The solution was recovered by centrifugation and stored at −20° C. in aliquots. Saliva was collected from a mastiff-type dog and stored frozen in aliquots until assayed. Sample aliquots were assayed for proteolytic activity using fluorometric blocked peptidylaminomethylcoumarylamide substrates in the cuvette of a Perkin Elmer fluorimeter at 37° C. The fluorimeter was standardised with a known concentration of methylcoumarin, and the assays were designed so that no more than 10% substrate hydrolysis occurred.
(§3) Assays were performed in assay buffer; 50 mM Tris.HCl, 5 mM CaCl2, 0.1% CHAPS, pH 7.5. Data were collected in real-time on a personal computer using the Flusys software package.
(§4) In the first series of experiments the sample (12 μl) was assayed against a range of serine and cysteine proteinase aminomethylcoumarylamide (NHMec) substrates (obtained commercially from Bachem) under standard conditions of 5 μM substrate concentration (from a 100-fold stock solution in dimethyl sulfoxide) to give a final volume of 120 μl. After addition of substrate the rate without sample was determined (which in all cases was zero), after which the sample was applied and the progress of the reaction was followed for a further 15 min. The slope obtained (fluorescence vs time) was analysed by linear regression and converted to rate of product formation (nM/min) see results table 2.

[4] = test system: Cat2 S1 fur extract proteolytic activity; test: as above; conditions: sample Cat2 S1, 5 μM substrate, 37° C., pH 7.5
Procedure: as §2, §3, §4

[5] = substrate 1 Z-Gly-Gly-Arg-NHMec

- % Inhibition [1, 5]: 20.4%
- v1 (rate after inhibitor) [1, 5]: 2.005 nM/min
Molecule: CC(C)C[C@H](NC(=O)[C@H]1O[C@@H]1C(=O)O)C(=O)NCCCCN=C(N)N (relative stereo) [E64, L-trans epoxysuccinyl-leucylamido-4-guanidino-butane]

- % Inhibition [1, 5]: 35.4%
- v1 (rate after inhibitor) [1, 5]: 1.837 nM/min
Molecule: O=c1oc(Cl)c(Cl)c2ccccc12 [3,4-Dichloroisocoumarin]

Molecule: CC(=O)N[C@@H](CC(C)C)C(=O)N[C@@H](CC(C)C)C(=O)N[C@H](C=O)CCCNC(=N)N [Leupeptin, acetyl-Leu-Leu-Arg-CHO]
- % Inhibition [1, 5]: 100%
- v1 (rate after inhibitor) [1, 5]: 0 nM/min
- % Inhibition ([2]; Cat1 S3, [I] 0.5 nM): 25.0%
- V1 ([2]; Cat1 S3, [I] 0.5 nM): 6.0
- % Inhibition ([2]; Cat1 S3, [I] 1.0 nM): 24.3%
- V1 ([2]; Cat1 S3, [I] 1.0 nM): 5.6
- % Inhibition ([2]; Cat1 S3, [I] 5.0 nM): 37.9%
- V1 ([2]; Cat1 S3, [I] 5.0 nM): 4.9
- % Inhibition ([2]; Cat1 S3, [I] 10.0 nM): 53.2%
- V1 ([2]; Cat1 S3, [I] 10.0 nM): 4.4
- % Inhibition ([2]; Cat1 S3, [I] 50.0 nM): 68.7%
- V1 ([2]; Cat1 S3, [I] 50.0 nM): 2.6
- % Inhibition ([2]; Cat1 S3, [I] 100.0 nM): 78.0%
- V1 ([2]; Cat1 S3, [I] 100.0 nM): 1.8
- Ki ([2]; found using the Enzfitter software package, read-out: Kl for the inhibition of Cat1 S3): 2.64 nM

Molecule: Cc1cc(=O)oc2cc(NC(=O)[C@H](Cc3ccccc3)NC(=O)[C@@H]3CCCN3C(=O)[C@H](C)NC(=O)[C@H](C)NC(=O)CCC(=O)O)ccc12 [Suc-Ala-Ala-Pro-Phe-NHMec] (Suc-AAPF-{AMC})
- Rate [3]: 0.04 nM/min
- Rate [4]: 0.05 nM/min

- % Inhibition ([1]; substrate 2 Z-Phe-Arg-NHMec): 100%
- v1 (rate after inhibitor) ([1]; substrate 2 Z-Phe-Arg-NHMec): 0 nM/min
Molecule: N=C(N)SCCCOc1oc(=O)c2cc(NC(=O)NCc3ccccc3)ccc2c1Cl [PhCH2NHCONH-CiTPrOIC]

Molecule: Cc1cc(=O)oc2cc(NC(=O)[C@H](C)NC(=O)[C@H](C)NC(=O)[C@H](C)NC(=O)CCC(=O)O)ccc12 [Suc-Ala-Ala-Ala-NHMec]
- Rate [3]: No activity
- Rate [4]: No activity

- % Inhibition [1, 5]: 89.6%
- v1 (rate after inhibitor) [1, 5]: 0.292 nM/min
Molecule: Aprotinin

Molecule: Cc1cc(=O)oc2cc(NC(=O)[C@H](CCCN=C(N)N)NC(=O)[C@H](CCCCN)NC(=O)[C@@H](NC(=O)[C@H](CCCN=C(N)N)NC(=O)[C@@H]3CCC(=O)N3)[C@@H](C)O)ccc12 [Pyr-Arg-Thr-Lys-Arg-NHMec] ([pGlu]RTKR-{AMC})
- Rate [3]: 0.58 nM/min
- Rate [4]: 0.33 nM/min
